In ChEMBL document CHEMBL2062468, “Identification of first proadrenomedullin N-terminal 20 peptide (PAMP) modulator by means of virtual screening and NMR interaction experiments” (Eur J Med Chem, 2012) one finds Activity data, which are given here for 32 molecules.

Active and inactive are the calls of the source. No cut-off for these calls is given here.

One assay addresses T1, Pro-adrenomedullin (Homo sapiens) (UniProt P35318).
T1 sequence (whole entry): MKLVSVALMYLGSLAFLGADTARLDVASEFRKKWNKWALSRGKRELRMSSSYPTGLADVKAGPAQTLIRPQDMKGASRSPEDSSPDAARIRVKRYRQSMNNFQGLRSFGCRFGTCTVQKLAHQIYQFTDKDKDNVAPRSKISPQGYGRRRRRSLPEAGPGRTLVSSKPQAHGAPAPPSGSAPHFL
Briefly: Binding affinity to human synthetic proadrenomedullin N-terminal 20 peptide assessed as reduction in absorbance at 1 uM after 1 hr by monoclonal antibody method. The arrangement: scale not given: the % may be the effect or the level left.
As for `Cc1ccc(-c2nc(-c3nccc4ccccc34)oc2-c2ccccc2)cc1`, the Activity came to 72.1%.

In the case of `O=S(=O)(O)c1ccc(-c2nnc(-c3ccccn3)nc2-c2ccc(S(=O)(=O)O)o2)o1`, the Activity came to 81.9%.

Regarding `O=C1C(Cl)=C(Sc2nnc3c4ccccc4c4ccccc4c3n2)C(=O)c2ccccc21`, the Activity worked out at 88.4%.

Turning to `FC(F)(F)c1nc2ccc(SSc3ccc4nc(C(F)(F)F)[nH]c4c3)cc2[nH]1`, the Activity is 109%.

As to `Nc1ncnc2nc(-c3ccc(C[PH](c4ccccc4)(c4ccccc4)c4ccccc4)cc3)[nH]c12`, the Activity came out at 76%.

In the case of `c1ccc([PH](CC[PH](c2ccccc2)(c2ccccc2)c2ccccc2)(c2ccccc2)c2ccccc2)cc1`, the Activity amounted to 84.6%.

On to `O=S(=O)(O)c1ccc2cc(/N=N/c3cc(S(=O)(=O)O)c4cccnc4c3O)ccc2c1`, for which the Activity turned out to be 86.4%.

`C(CCc1nnc2c(n1)CCCC2)Cc1nnc2c(n1)CCCC2`: the Activity is 96.5%.

As to `S=C1NCN2CCN(CC2)CNC(=S)C(=S)NCN2CCN(CC2)CNC1=S`, the Activity came to 88%.

For `c1cc(NNc2cccc(-c3nnn[nH]3)c2)cc(-c2nnn[nH]2)c1`, the Activity was found to be 95.3%.

For the molecule `CC(C)CCC[C@@H](C)[C@H]1CC[C@H]2[C@@H]3CCC4CC(N)CC[C@]4(C)[C@H]3CC[C@]12C` (stereo partly specified), the Activity was determined as 106%.

Turning to `CC1c2ccccc2Cn2cc3c(c21)C(=O)c1cccc(OP(=O)(O)OCc2ccccc2)c1C3=O` (stereo unspecified), the Activity was 107%.

Take `c1ccc2c(CN3CCN(Cc4c[nH]c5ccccc45)CC3)c[nH]c2c1`: the Activity was determined as 89.7%.

Consider `Cn1c(=O)c2c(ncn2CN2CCN(Cn3cnc4c3c(=O)n(C)c(=O)n4C)CC2)n(C)c1=O`, for which the Activity came out at 76.4%.

Consider `OC[C@H]1O[C@@H](n2cnc3c(SCc4ccccc4)ncnc32)[C@H](O)[C@@H]1O`, for which the Activity came to 109%.

In the case of `O=C(O)CNC(=O)C1NC(C(F)(F)F)(C(F)(F)F)OC1(C(F)(F)F)C(F)(F)F` (stereo unspecified), the Activity stood at 92.1%.

Take `Cn1cnc([N+](=O)[O-])c1Sc1nc(N)nc2c1ncn2[C@H]1C[C@H](O)[C@@H](CO)O1`: the Activity worked out at 86.3%.

Take `Cc1ccc2ccccc2c1CSc1nc(N)nc2c1ncn2CC(C)C`: the Activity came out at 85.5%.

Take `Clc1ccc2c(N3CCC(CCC4CCN(c5ncnc6cc(Cl)ccc56)CC4)CC3)ncnc2c1`: the Activity came to 88%.

`Nc1nc(-c2ccccc2)c(-c2ccccc2)c(-c2nc(N)nc(-c3ccccc3)c2-c2ccccc2)n1`: the Activity came to 109%.

Consider `CN1C(=O)C2N=C(C3CC(=O)CC(c4nc5c(=O)n(C)c(=O)n(C)c5[nH]4)N3)NC2N(C)C1=O` (stereo unspecified), for which the Activity was 85.1%.

On to `C[C@]12CC[C@@H]3c4ccc(O)cc4CC[C@H]3[C@@H]1CC[C@@H]2OC(=O)CCC1CCCC1`, for which the Activity is 91.2%.

In the case of `O=C(O)c1c(-c2nccc3ccccc23)[nH]c(-c2ccccc2)c1S(=O)(=O)O`, the Activity was 96.7%.

`Nc1nc(-c2ccc3ccccc3c2)cc(-c2cc(-c3ccc4ccccc4c3)nc(N)n2)n1`: the Activity is 104%.

Consider `S=C(Nc1ccc2c(c1)Cc1ccccc1-2)Nc1ccc2c(c1)Cc1ccccc1-2`, for which the Activity worked out at 80.8%.

For `O=c1[nH]c2ccccc2n1CCCN1CCC(n2c(=O)[nH]c3cc(Cl)ccc32)CC1`, the Activity stood at 80.1%.

For the molecule `O=[N+]([O-])c1ccc2c(c1)N=C1OC(c3c[nH]c4ccc(COc5ccccc5)cc34)C(O)=C1N2` (stereo unspecified), the Activity came to 92.7%.

`Nc1nc(SCc2ccccc2)c2ncn(Cc3ccccc3)c2n1`: the Activity came out at 91.4%.

For the molecule `C[C@]12CC[C@@H]3c4ccc(O)cc4CC[C@H]3[C@@H]1CC[C@@H]2OC(=O)CCc1ccccc1`, the Activity was determined as 98.4%.

As for `O=C1C2C3C=CC(C2C(=O)N1CN1CCSCC1)C1C2C(=O)N(CN4CCSCC4)C(=O)C2C31` (stereo unspecified), the Activity is 92.5%.

For the molecule `CC1(C)CC(Nc2ccc(Nc3ccccc3)cc2)CC(C)(C)N1`, the Activity turned out to be 96.2%.

For the molecule `O=C1c2ccccc2C(=O)c2c(NC3CCCCC3)ccc(Nc3ccc(S(=O)(=O)O)cc3)c21`, the Activity stood at 101%.

The target in a further assay is T1, Pro-adrenomedullin (Homo sapiens). Briefly: Binding affinity to human proadrenomedullin N-terminal 20 peptide at 500 uM by NMR spectroscopy.
Take `O=S(=O)(O)c1ccc2cc(/N=N/c3cc(S(=O)(=O)O)c4cccnc4c3O)ccc2c1`: the result was Active.

On to `CN1C(=O)C2N=C(C3CC(=O)CC(c4nc5c(=O)n(C)c(=O)n(C)c5[nH]4)N3)NC2N(C)C1=O` (stereo unspecified), for which the result was Active.

For another assay the target is unchanged. Description: Binding affinity to human proadrenomedullin N-terminal 20 peptide assessed as fragmentation of PAMP protein at 500 uM by MS analysis.
`O=S(=O)(O)c1ccc2cc(/N=N/c3cc(S(=O)(=O)O)c4cccnc4c3O)ccc2c1`: the outcome was Active.

Another assay deals with Mus musculus. Briefly: Induction of angiogenesis in mouse athymic nude mouse implanted with matrigel containing compound at 1 uM measured after 11 days by direct in vivo angiogenesis assay. The assay is classed as functional, organism-based.
For the molecule `CN1C(=O)C2N=C(C3CC(=O)CC(c4nc5c(=O)n(C)c(=O)n(C)c5[nH]4)N3)NC2N(C)C1=O` (stereo unspecified), the outcome was Active.
